Laboratory results as given in article PMC6505672, “Conformational change of Sos-derived proline-rich peptide upon binding Grb2 N-terminal SH3 domain probed by NMR” (Scientific Reports, 2013).
“And” between values parts separate entries of the source, which are not always exact repeats. Identical values can stand only once.

What was measured:
Grb2 nSH3 = settings: single alanine substitution, ITC; cited from earlier work
[1] = 13Cα CPMG relaxation dispersion of free VPP peptide (Grb2 nSH3 absent); assay type: physicochemical; settings: 25°C
Method: The global exchange parameters of the exchange rate, kex; the fractional population of the minor state, Pb were calculated from the dispersion curves of Val5 and Arg8. Then, the chemical shift difference between two states, Δω; the target function of fitting error, χ^2; and the nonexchangeable contribution of R2,eff, R2,0 for each residue were calculated using the global exchange parameters based on a two-state exchange model. […] The kex values were slightly larger than the Δω values, indicating a fast or intermediate exchange process on the chemical shift time scale. The exchange rate kex is defined as kex = kon[P] + koff, where [P] is the concentration of the protein. […]
Two-dimensional ^1H-^13C correlated spectra were collected as series of data sets with CPMG frequencies (νCPMG) of 30, 60, 120, 180, 300, 450, and 600 Hz. […] Spectra were recorded as 62 × 600 complex points with a 2.6-s repetition delay and 32 scans for each increment. […]
Peak intensities of the ^13Cα relaxation dispersion data were quantified using the Sparky program. The transverse relaxation constant, R2,eff, for each νCPMG frequency was calculated as R2,eff = −ln(I(νCPMG)/I0)/Trelax, where I(νCPMG) is the peak intensity obtained for a given value of νCPMG and I0 is the peak intensity obtained when the CPMG block is omitted. […]

[2] = design: method as in earlier work; settings: free state, cited from earlier work
[3] = target: T1, Grb2 N-terminal SH3 (nSH3) domain (Homo sapiens, UniProt P62993); experiment: Minor (cis Xaa-Pro) peaks in 1H-13Cα HSQC, Grb2 nSH3-bound state; assay type: physicochemical; settings: PBS in 2H2O, 25°C
T1 construct: The plasmid to express the Grb2 nSH3 domain (residues 1–57) was constructed by using a pGEX-6P expression vector; GST (N, cleaved yes); made in house; host or cells: E. coli BL21 (DE3)
Method: The relative intensities of the minor peaks with respect to the major peaks for these residues were 10% for Val1, 3% for Pro2, 14% for Pro4, 10% for Val5, and 6% for Pro6.
The buffer system for NMR experiments was PBS in ^2H2O. […] Data were processed using the NMRPipe/NMRDraw software package. Peak picking and spectral analysis were performed using the Sparky program. Conformational analyses based on chemical shifts were conducted using the Random Coil Index (RCI) program[19] on the web server (http://randomcoilindex.com/).

[4] = target: T1, Grb2 N-terminal SH3 (nSH3) domain; experiment: 13Cα CPMG relaxation dispersion of VPP peptide with Grb2 nSH3; assay type: binding
Method: Non-labelled VPP (10 mM) peptide mixed with 0.25 mM Grb2 nSH3 dissolved in ^2H2O solvent was subjected to ^13Cα relaxation dispersion experiments.
The global exchange parameters of the exchange rate, kex; the fractional population of the minor state, Pb were calculated from the dispersion curves of Val5 and Arg8. Then, the chemical shift difference between two states, Δω; the target function of fitting error, χ^2; and the nonexchangeable contribution of R2,eff, R2,0 for each residue were calculated using the global exchange parameters based on a two-state exchange model. […] The exchange rate kex is defined as kex = kon[P] + koff, where [P] is the concentration of the protein. In this experimental condition, [P] is assumed to be zero because the concentration of the ligand is much higher than that of the protein. Thus, kex = koff. The affinity of the ligand to the protein, i.e., Kd, is defined as Kd = koff/kon. If kon is diffusion-controlled, kon ~ 10^8 M^−1s^−1. […] However, as reported by Lundström et al. Cα and Cβ atoms of valine are simultaneously incorporated to the final products from [^13C-2]-glucose as a sole carbon source by using an E.coli expression system. Thus, isolated ^13Cα-selective labelled valine residues cannot be prepared for this experimental purpose.
Two-dimensional ^1H-^13C correlated spectra were collected as series of data sets with CPMG frequencies (νCPMG) of 30, 60, 120, 180, 300, 450, and 600 Hz. The constant-time relaxation delay Trelax was set to 66.7 ms. Spectra were recorded as 62 × 600 complex points with a 2.6-s repetition delay and 32 scans for each increment. The total experimental time was 24 h for both 600 and 500 MHz spectrometers.
Peak intensities of the ^13Cα relaxation dispersion data were quantified using the Sparky program. The transverse relaxation constant, R2,eff, for each νCPMG frequency was calculated as R2,eff = −ln(I(νCPMG)/I0)/Trelax, where I(νCPMG) is the peak intensity obtained for a given value of νCPMG and I0 is the peak intensity obtained when the CPMG block is omitted. The CPMG dispersion curves were fitted numerically as a two-state exchange model using an in-house program described elsewhere. The fitting calculation extracted the following terms as the global parameters: the exchange rate, kex; the fractional population of the minor state, Pb; and the residue specific parameters, including the magnitude of the chemical shift difference between two states, Δω; the target function of fitting error, χ^2; and the nonexchangeable contribution of R2,eff, R2,0.

[5] = target: Sos-derived VPP peptide (Homo sapiens) (UniProt Q07889); settings: cited from earlier work

T1 sequence (P62993 1-57): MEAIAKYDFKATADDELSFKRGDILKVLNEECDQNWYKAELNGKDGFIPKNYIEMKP
Grb2 nSH3 (from UniProt P62993), sequence (P62993 1-58): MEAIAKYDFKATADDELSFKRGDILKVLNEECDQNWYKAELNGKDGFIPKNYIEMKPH

| minor (cis) peaks in bound state [3] | population of the minor state (Pb), in percent ([4]; 10 mM peptide, 0.25 mM Grb2 nSH3, 25°C, bound population expected from sample 2.5%) | exchange rate, kex ([4]; global fit of Val5 and Arg8, two-state exchange model, 10 mM VPP peptide, 0.25 mM Grb2 nSH3, PBS in 2H2O, 25°C, 11.7 and 14.1 T, kex = koff assumed) | fractional population of the minor state, Pb ([4]; global fit of Val5 and Arg8, two-state model, 10 mM peptide, 0.25 mM Grb2 nSH3, 25°C, as fraction) | Δω ([4]; range over all residues, 13Cα, relaxation dispersion) | Δω ([4]; residue P3, 13Cα shift difference between two states from relaxation dispersion fit, 25°C) | Δω ([4]; residue R8, 13Cα shift difference between two states from relaxation dispersion fit, 25°C) | Δω ([4]; residue R9, 13Cα shift difference between two states from relaxation dispersion fit, 25°C) | Δω ([4]; residue R10, 13Cα shift difference between two states from relaxation dispersion fit, 25°C) | Δω ([4]; residue V5, 13Cα shift difference between two states from relaxation dispersion fit, 25°C) | Δω ([4]; residues P4/P7 (overlapped), 13Cα shift difference between two states from relaxation dispersion fit, 25°C) | Compound | residues critical for interaction with Grb2 nSH3 (Grb2 nSH3) | relaxation dispersion curves [1] | PPII helix structure ([2]; NMR and circular dichroism) | minor (cis) conformation [2] | significant relaxation dispersion ([4]; presence of Grb2 nSH3, 11.7 and 14.1 T, 25°C) | Kd [5] |
| --- | --- | --- | --- | --- | --- | --- | --- | --- | --- | --- | --- | --- | --- | --- | --- | --- | --- |
| lack of minor peaks in the bound state | ~ 2.6% | 1037.87 s⁻¹ | 0.026 | 0–1.5 ppm | 0.09 ± 0.18 ppm | 1.53 ppm and 1.53 ± 0.42 ppm | 0.23 ± 0.20 ppm | 0.13 ± 0.17 ppm | 1.47 ppm and 1.47 ± 0.52 ppm | 0.00 ± 0.16 ppm | CC(C)C[C@H](NC(=O)[C@@H]1CCCN1C(=O)CN)C(=O)NCC(=O)N[C@@H](CO)C(=O)N[C@H](C(=O)N1CCC[C@H]1C(=O)N1CCC[C@H]1C(=O)N1CCC[C@H]1C(=O)N[C@H](C(=O)N1CCC[C@H]1C(=O)N1CCC[C@H]1C(=O)N[C@@H](CCCNC(=N)N)C(=O)N[C@@H](CCCNC(=N)N)C(=O)N[C@@H](CCCNC(=N)N)C(=O)O)C(C)C)C(C)C [VPP peptide] | Pro3, Val5, Pro6, and Arg8 of the VPP peptide are critical for interaction with Grb2 nSH3 | the dispersion curves were flat | ~ 60% | 9% | Significant dispersion was only observed for Val5 and Arg8 and not for the other residues | – |
| – | – | – | – | – | – | – | – | – | – | – | Grb2 nSH3 (from UniProt P62993) | – | – | – | – | – | 3.5 µM |
